# Measurements as given in patent publication US20230241063A1, “METHODS OF TREATING PROSTATE CANCER” (Celgene Quanticel Research, Inc., priority 2020, published 2023).
# Entries after “also recorded” stand apart in the source; their conditions may differ.
# How the values were obtained:
# PC3 cells = experiment: Proliferation assay (Cell Titer-Glo) in PC3 cells; assay type: cell-based, human; details: single agent, 3 days, CellTiter Glo
# Krt8 [1] = experiment: Krt8 gene expression by qPCR in DKO cells; assay type: cell-based, mouse; details: 8 days, enzalutamide 10 uM in the combination
# LNCaP-AR cells = experiment: Proliferation assay (Cell Titer-Glo) in LNCaP-AR cells; assay type: cell-based, human; details: single agent, 3 days
# Krt8 [2] = experiment: Krt8 gene expression by qPCR in TKO cells; assay type: cell-based, mouse; details: single agent, 8 days
# VCaP cells = experiment: Proliferation assay (Cell Titer-Glo) in VCaP cells; assay type: cell-based, human; details: 3 days; enzalutamide 10 uM in the combination
# TKO cells = experiment: Proliferation assay (Cell Titer-Glo) in TKO cells; assay type: cell-based, mouse; details: Compound A alone
# DKO cells = experiment: Proliferation assay (Cell Titer-Glo) in DKO cells; assay type: cell-based, mouse; details: Compound A alone
# LNCaP cells = experiment: Proliferation assay (Cell Titer-Glo) in LNCaP cells; assay type: cell-based, human; details: single agent, 6 days
# [3] = system: LNCaP-AR CRISPRi TP53/RB1 cells; experiment: Proliferation assay (Cell Titer-Glo) in LNCaP-AR CRISPRi TP53/RB1 cells; assay type: cell-based, human; details: single agents, 6 days, LNCaP_AR guideTP53/RB1 cells
Structure (SMILES),effect on cell proliferation of PC3 cells (PC3 cells),induction of Keratin8 (Krt8) expression (Krt8 [1]),effect on cell proliferation (LNCaP-AR cells),concentration of Compound A able to induce the expression of Krt8 (Krt8 [2]),effect on proliferation of VCaP cells (VCaP cells),effect on TKO cell proliferation (TKO cells),effect on DKO cell proliferation (DKO cells),effect on proliferation of LNCaP cells (LNCaP cells),effect on proliferation [3],effect on proliferation ([3]; listed as ENZA)
"COc1ccc(-c2c(-c3ccc(C#N)c(F)c3)nc(N3CCC(N)CC3)n(C)c2=O)cc1F [Compound A, 4-[2-(4-amino-piperidin-1-yl)-5-(3-fluoro-4-methoxy-phenyl)-1-methyl-6-oxo-1,6-dihydro-pyrimidin-4-yl]-2-fluoro-benzonitrile]",did not affect cell proliferation; also recorded: does not affect cell proliferation,1.5 fold,no effect on cell proliferation,≥ 1 µM,no effect on proliferation; also recorded: did not affect proliferation,mild effect,mild effect,no effect on proliferation; also recorded: did not affect proliferation,do not affect proliferation; also recorded: did not affect proliferation,–
"CNC(=O)c1ccc(N2C(=S)N(c3ccc(C#N)c(C(F)(F)F)c3)C(=O)C2(C)C)cc1F [enzalutamide, 4-{3-[4-cyano-3-(trifluoromethyl)phenyl]-5,5-dimethyl-4-oxo-2-sulfanylideneimidazolidin-1-yl}-2-fluoro-N-methylbenzamide, reference compound]",resistant,–,–,–,–,–,–,–,do not affect proliferation,did not affect proliferation
